Laboratory results: ChEMBL document CHEMBL6134890, “Terminally Symmetric β-Turn Peptides for Multidrug-Resistant Bacterial Infections” (J Med Chem, 2025)
Values after ≈ are worked out from the molar mass of the structure shown. Active and inactive are the calls of the source. The rule behind the calls is not given here. Peptide text beside a SMILES is read from it.

Legend:
Escherichia coli [1] = test: Antimicrobial activity against multi-drug resistant Escherichia coli assessed as reduction in bacterial growth at 2 times MIC measured after 1 hrs in presence of chymotrypsin by microplate reader based analysis; assay type: functional, organism-based
Escherichia coli [2] = test: Antibacterial activity against Escherichia coli […] at sub-inhibitory concentration measured after 15 passages for 18 hrs; assay type: functional, organism-based
Escherichia coli [3] = test: Antibiofilm activity against multi-drug resistant Escherichia coli measured after 24 hrs by crystal violet staining based analysis; assay type: functional, organism-based
Escherichia coli [4] = test: Antimicrobial activity against Escherichia coli ATCC 25922 assessed as reduction in bacterial growth by broth dilution method; assay type: functional
Staphylococcus aureus [5] = test: Antimicrobial activity against multi-drug resistant Staphylococcus aureus assessed as reduction in bacterial growth at 2 times MIC measured after 1 hrs in presence of chymotrypsin by microplate reader based analysis; assay type: functional, organism-based
L02 = test: Cytotoxicity against human LO2 cells at 2 to 256 uM measured after 24 hrs by CCK-8 method; assay type: toxicity, cell-based; settings: l02, 24 h, dose 2-256 µM
Staphylococcus aureus [6] = test: Antimicrobial activity against multi-drug resistant Staphylococcus aureus assessed as reduction in bacterial growth by broth dilution method; assay type: functional
Escherichia coli [7] = test: Antibacterial activity against multidrug resistant Escherichia coli infected in male Kunming mouse model assessed as reduction in IL-6 expression in presence of levofloxacin by immunochemical analysis; assay type: functional, organism-based
Staphylococcus aureus [8] = test: Antibiofilm activity against multi-drug resistant Staphylococcus aureus measured after 24 hrs by crystal violet staining based analysis; assay type: functional, organism-based
Cell membrane [9] = test: Disruption of cell membrane in multi-drug resistant Staphylococcus aureus assessed as release of cell content at 2 times MIC measured for 120 mins by transmission electron microscopy analysis; assay type: subcellular
Escherichia coli [10] = test: Antibacterial activity against multidrug resistant Escherichia coli infected in male Kunming mouse model assessed as reduction in IL-6 expression by immunochemical analysis; assay type: functional, organism-based
Staphylococcus aureus [11] = test: Bactericidal activity against multi-drug resistant Staphylococcus aureus assessed as eradication of bacterial growth at 2 times MIC by time-kill kinetic assay; assay type: functional, organism-based; settings: time 120-720 min
Cell membrane [12] = test: Disruption of cell membrane in multi-drug resistant Staphylococcus aureus assessed as appearance of ruptured cell membrane at 2 times MIC measured for 120 mins by transmission electron microscopy analysis; assay type: subcellular
Escherichia coli [13] = test: Antibacterial activity against Escherichia coli ATCC 25922 infected in male Kunming mouse model assessed as reduction in bacterial load measured after 11 days in presence of levofloxacin; assay type: functional, organism-based; settings: time 11.0 day
Acinetobacter baumannii = test: Antimicrobial activity against multi-drug resistant Acinetobacter baumannii assessed as reduction in bacterial growth by broth dilution method; assay type: functional
Staphylococcus aureus [14] = test: Antimicrobial activity against multi-drug resistant Staphylococcus aureus assessed as reduction in bacterial growth in presence of NaCl; assay type: functional, organism-based
Escherichia coli [15] = test: Antibacterial activity against multidrug resistant Escherichia coli infected in male Kunming mouse model assessed as reduction in wound size measured after 3 to 5 days in presence of levofloxacin by caliper method; assay type: functional, organism-based; settings: time 3-5 day
Escherichia coli [16] = test: Bactericidal activity against multi-drug resistant Escherichia coli assessed as eradication of bacterial growth at 2 times MIC by time-kill kinetic assay; assay type: functional, organism-based; settings: time 120-720 min
[17] = Half life of the compound in 25% plasma; assay type: ADME, cell-free
Staphylococcus aureus [18] = test: Antimicrobial activity against multi-drug resistant Staphylococcus aureus assessed as reduction in bacterial growth in presence of KCl; assay type: functional, organism-based
Escherichia coli [19] = test: Antibacterial activity against Escherichia coli ATCC 25922 infected in male Kunming mouse model assessed as reduction in bacterial load measured after 11 days; assay type: functional, organism-based; settings: time 11.0 day
Escherichia coli [20] = test: Antimicrobial activity against multi-drug resistant Escherichia coli assessed as reduction in bacterial growth at 2 times MIC measured after 1 hrs in presence of trypsin by microplate reader based analysis; assay type: functional, organism-based
Escherichia coli [21] = test: Antibiofilm activity in […] assessed as eradication of formed biofilm by measuring reduction in viable bacterial count measured after 12 hrs by confocal microscopy based analysis; assay type: functional, organism-based
Escherichia coli [22] = test: Antibacterial activity against multidrug resistant Escherichia coli infected in male Kunming mouse model assessed as reduction in vascular congestion in presence of levofloxacin by H and E staining based analysis; assay type: functional, organism-based
Cell membrane [23] = test: Induction of cytoplasmic membrane depolarization in multi-drug resistant Escherichia coli at 1 to 4 times MIC measured within 1 min by DiSC3-5 fluorescent dye based analysis
HEK-293T = test: Cytotoxicity against HEK293T cells at 2 to 256 uM measured after 24 hrs by CCK-8 method; assay type: toxicity, cell-based; settings: human, dose 2-256 µM
Escherichia coli [24] = test: Antibacterial activity against multidrug resistant Escherichia coli infected in male Kunming mouse model assessed as recovery of mouse weight measured after 11 days in presence of levofloxacin; assay type: functional, organism-based; settings: time 11.0 day
Staphylococcus aureus [25] = test: Antimicrobial activity against multi-drug resistant Staphylococcus aureus assessed as reduction in bacterial growth in presence of FeCl3; assay type: functional, organism-based
BEAS-2B = test: Cytotoxicity against human BEAS-2B cells at 2 to 256 uM measured after 24 hrs by CCK-8 method; assay type: toxicity, cell-based; settings: dose 2-256 µM
Cell membrane [26] = test: Disruption of cell membrane in multi-drug resistant Escherichia coli assessed as increase in red fluorescence intensity of PI at 2 times MIC measured for 2 hrs by fluorescence confocal microscopic imaging based analysis; assay type: subcellular

In the case of CC[C@H](C)[C@H](NC(=O)[C@H](CCCCN)NC(=O)[C@@H](NC(=O)[C@H](CCCCN)NC(=O)[C@@H]1CCCN1C(=O)[C@H](Cc1c[nH]c2ccccc12)NC(=O)[C@H](Cc1c[nH]c2ccccc12)NC(=O)[C@H](Cc1c[nH]c2ccccc12)NC(=O)[C@@H]1CCCN1C(=O)[C@H](CCCCN)NC(=O)[C@@H](NC(=O)[C@H](CCCCN)NC(=O)[C@@H](NC(=O)[C@@H](N)CCCCN)[C@@H](C)CC)[C@@H](C)CC)[C@@H](C)CC)C(=O)N[C@@H](CCCCN)C(N)=O (H-KIKIKPWWWPKIKIK-NH2), the Activity (Escherichia coli [1]) is reported as “inactive”, the Activity (Escherichia coli [2]) is reported as “Active” and the Activity (Escherichia coli [3]) is reported as “Dose-dependent-effect”. For the same compound, the MIC (Escherichia coli [4]) was 4 µM (≈ 7.97 µg/mL), the Activity (Staphylococcus aureus [5]) was “inactive” and the Activity (L02) was “Toxic”. For the same compound, the MIC (Staphylococcus aureus [6]) was 8 µM (≈ 15.9 µg/mL), the Activity (Escherichia coli [7]) was “Active” and the Activity (Staphylococcus aureus [8]) was “Dose-dependent-effect”. The Activity (Cell membrane [9]) was “Active”, the Activity (Escherichia coli [10]) was “Active” and the Activity (Staphylococcus aureus [11]) was “Time-dependent-effect”. The Activity (Cell membrane [12]) was “Active”, the Activity (Escherichia coli [13]) was “Active” and the MIC (Acinetobacter baumannii) was 4 µM (≈ 7.97 µg/mL). For the same compound, the Activity (Staphylococcus aureus [14]) was “Active”, the Activity (Escherichia coli [15]) was “Active” and the Activity (Escherichia coli [16]) was “Time-dependent-effect”. For the same compound, the half-life [17] was 75.5 h, the Activity (Staphylococcus aureus [18]) was “Active” and the Activity (Escherichia coli [19]) was “Active”. The Activity (Escherichia coli [20]) was “inactive”, the Activity (Escherichia coli [21]) was “Dose-dependent-effect” and the Activity (Escherichia coli [22]) was “Active”. The Activity (Cell membrane [23]) was “Active”, the Activity (HEK-293T) was “Toxic” and the Activity (Escherichia coli [24]) was “Active”. For the same compound, the Activity (Staphylococcus aureus [25]) was “Active”, the Activity (BEAS-2B) was “Toxic” and the Activity (Cell membrane [26]) was “Active”.
